Measurements taken from publication PMC9241943, “LcCCL28-25, Derived from Piscine Chemokine, Exhibits Antimicrobial Activity against Gram-Negative and Gram-Positive Bacteria In Vitro and In Vivo” (Microbiology Spectrum, 2022).
In brackets after ≈: the same amount, converted by molar mass. Residues, ends and D or L forms follow the SMILES beside them.

Tests used:
S. aureus ATCC 25923 = test: SYTOX green membrane permeability assay; type: cell-based, Staphylococcus aureus; details: S. aureus ATCC 25923, 5 μM SYTOX green, read every 1 min
Method: The SYTOX green staining assay was performed to assess peptide-associated membrane damage ([47], [52]). E. coli ATCC 25922 and S. aureus ATCC 25923 cells in the mid-logarithmic phase were collected, washed thrice, and resuspended (5 × 10^7 CFU/mL) in buffer B (10 mM Tris-HCl, pH 7.4, at 25°C). The bacterial suspensions were mixed with 5 μM SYTOX green and incubated for 15 min at room temperature in the dark. Then, the mixtures were added to black, clear-bottom 96-well plates at a density of 100 μL/well. After peptide addition, SYTOX green uptake was monitored using an EnSpire multimode plate reader (PerkinElmer, Singapore) with an excitation wavelength of 485 nm and an emission wavelength of 520 nm. Each measurement interval was 1 min, totaling 30 to 60 times. Melittin was used as the positive control, while bovine serum albumin (BSA) was the negative control.

Gram-positive bacteria = test: Time-kill curves (4x MIC); type: cell-based; details: 4× MIC
Method: (§1) Consistent with previous reports, time-kill curves of lcCCL28-25 against Gram-negative and Gram-positive bacteria were performed under 4× MIC conditions ([44]). Bacteria were incubated to the logarithmic growth stage. Bacterial cells in the logarithmic growth phase were diluted to achieve log(CFU/mL) values of ~5 to 6 and incubated with lcCCL28-25 for 1, 2, 4, 8, 16, 30, 60, 120, and 240 min. At each time point, 50-μL amounts of the samples were diluted to different concentrations and plated onto agar plates. After overnight incubation, the numbers of colonies on the plates were counted.

Gram-negative bacteria = test: Time-kill curves (4x MIC); type: cell-based; details: 4× MIC
Method: as §1

[1] = tested on: P. aeruginosa FRD1 biofilm; test: Biofilm eradication assay (crystal violet); type: cell-based, Pseudomonas aeruginosa; details: for biofilm eradication rate: 24-h mature FRD1 biofilm, 2 h
Method: (§2) In vitro static biofilm models have been reported in many studies ([45][–][47]). A Pseudomonas aeruginosa mucoid strain, FRD1, isolated from a cystic fibrosis patient, was used for the biofilm inhibition and eradication assay. The FRD1 strain was shock cultured to logarithmic growth stage at 37°C and 150 × g. After cleaning using PBS and centrifuging thrice, the bacteria were resuspended in MHB medium (with 0.2% glucose) and gradient diluted to an OD600 value of ~0.01.
For the eradication assay, biofilms of the FRD1 strain were grown in a 96-well plate. Briefly, 100-μL amounts of the bacterial suspension were plated and incubated at 37°C for 24 h. Then, wells containing the biofilms were washed thrice using PBS. The peptide was serially diluted in MHB medium (with 0.2% glucose) and added to the 96-well plates (100 μL/well). The plates were incubated for 2 h at 37°C. Finally, bacterial biofilms were quantified as described above for the biofilm inhibition assay.

[2] = tested on: P. aeruginosa FRD1 biofilm; test: Biofilm inhibition assay (crystal violet); type: cell-based, Pseudomonas aeruginosa; details: P. aeruginosa FRD1, 6.25 μg/mL (0.5× MIC), 37°C 24 h, triplicate
Method: as §2
For the biofilm inhibition assay, 90-μL amounts of bacterial suspensions and 10-μL amounts of increasing concentrations of the peptide were added to a 96-well plate and coincubated at 37°C for 24 h. Then, bacterial biofilms were quantified as follows: (i) planktonic bacteria were removed by washing thrice using PBS, (ii) biofilm bacteria were fixed in 100 μL of 4% paraformaldehyde at room temperature for 15 min and (iii) stained with 100 μL of 0.1% crystal violet for 30 min, (iv) the dye was removed, followed by washing twice using PBS, adding 200 μL of 95% ethanol to each well to dissolve the crystal violet, and finally, (v) absorbance was measured at 590 nm using an EnSpire multimode plate reader (PerkinElmer, Singapore).

[3] = tested on: methicillin-resistant S. aureus standard strain USA300; test: Neutropenic mouse thigh infection model; type: in vivo; details: neutropenic BALB/c mice, 300 μg i.p. at 2 h postinfection
Method: Female BALB/c mice were used to construct a neutropenic murine thigh infection model as previously published ([48][–][50]). Briefly, mice (n = 9/group) were rendered neutropenic by consecutive intraperitoneal injections of 150 and 100 mg/kg of body weight cyclophosphamide at 4 and 1 day before bacterial injection ([51]). An S. aureus USA300 inoculum (~1.5 × 10^6 CFU/mL) was prepared by diluting logarithmic phase bacteria with fresh MHB. Each mouse was infected by intramuscular injection of 0.1 mL of the inoculum (~1.5 × 10^5 CFU) into the right thigh muscles. At 2 h postinfection, 0.1 mL of lcCCL28-25 peptide (300 μg) or vancomycin hydrochloride (300 μg, 15 mg/kg) was administered by intraperitoneal injection. The control group was injected with an equal volume of PBS. Untreated control mice were sacrificed at the start of treatment to establish the baseline bacterial burden. Mice in the three treatment groups (PBS, vancomycin, and lcCCL28-25) were sacrificed at 48 h postinfection. Their right thighs were aseptically harvested, placed in sterile saline and homogenized using a Bioprep-6 homogenizer (Allsheng, Hangzhou, China). After being serially diluted to 1:10 in sterile saline, 100-μL amounts of tissue suspensions at various concentrations were plated on LB agar to determine bacterial counts after incubation at 37°C for 24 h.

[4] = tested on: Klebsiella pneumoniae CMCC46117; type: cell-based; details: CMCC46117, 2 h
Method: (§3) The MIC assays were performed as previously described ([43]). Briefly, peptides were plated in a 2-fold dilution series (50 μL/well) of Mueller-Hinton broth (MHB) in Costar 96-well cell culture plates (Corning, NY, USA). Three repeats were set for each concentration. E. coli ATCC 25922, A. hydrophila ATCC 7966, P. aeruginosa PAO1, P. aeruginosa FRD1, S. aureus ATCC 25923, S. agalactiae ATCC 13813, S. pneumoniae ATCC 49619, methicillin-resistant S. aureus ATCC 43300, and methicillin-resistant S. aureus USA300 were cultured in Luria-Bertani (LB) medium, while K. pneumoniae CMCC46117 was cultured in tryptic soy broth (TSB) medium. Incubation was done at 37°C and 150 × g for 12 h. Bacteria were transferred to fresh MHB at a ratio of 1% (vol/vol) and incubated to reach a logarithmic growth phase. Then, 50 μL of a bacterial suspension at 4 × 10^6 CFU/mL was added to each well. […]

[5] = tested on: Aeromonas hydrophila ATCC 7966; type: cell-based; details: ATCC 7966, 2 h
Method: as §3

CSCC[C@H](NC(=O)[C@H](Cc1c[nH]c2ccccc12)NC(=O)[C@H](CCCCN)NC(=O)[C@@H]1CCCN1C(=O)[C@H](Cc1c[nH]cn1)NC(=O)[C@H](C)N)C(=O)N[C@@H](CCC(=O)O)C(=O)N[C@H](C(=O)N[C@H](C(=O)N[C@@H](CCCNC(=N)N)C(=O)N[C@@H](CO)C(=O)N[C@@H](CCCNC(=N)N)C(=O)N[C@@H](CCC(N)=O)C(=O)N[C@@H](CCCNC(=N)N)C(=O)N[C@@H](CCCCN)C(=O)N[C@@H](CCCCN)C(=O)N[C@@H](CCCCN)C(=O)N[C@@H](Cc1c[nH]cn1)C(=O)N[C@@H](CC(N)=O)C(=O)N[C@@H](CCCCN)C(=O)N[C@@H](CCCNC(=N)N)C(=O)N[C@@H](CCCNC(=N)N)C(=O)N[C@@H](C)C(=O)N[C@H](C(=O)N[C@@H](Cc1ccc(O)cc1)C(=O)O)[C@@H](C)O)C(C)C)C(C)C [lcCCL28-25] (H-AHPKWMEVVRSRQRKKKHNKRRATY-OH; N-terminus and C-terminus assumed)
SYTOX green fluorescence intensity (S. aureus ATCC 25923): increased rapidly within 20 min
time for CFU counts to be reduced by more than half (Gram-positive bacteria): ≤ 10 min
time for CFU counts to be reduced by more than half (Gram-negative bacteria): more than 1 h
biofilm eradication rate ([1]; 12.5 μg/mL): more than 80%
biofilm eradication rate ([1]; 25 μg/mL): above 90%
concentration required to eradicate ~50% of biofilm ([1]; 24-h mature P. aeruginosa FRD1 biofilm, 2 h treatment, crystal violet): 3.13 µg/mL
reduction of biofilm formation [2]: ~ 64%
reduction in average bacterial load in thighs versus control group ([3]; S. aureus USA300 i.m., 48 h postinfection): 0.86 log10 CFU/g
mice that died after 48 h of infection ([3]; n = 9/group, three died in PBS group): one
MIC [4]: 25.00 µg/mL (≈ 7.83 µM)
MIC [5]: >50.00 µg/mL
